Reference: ChEMBL document CHEMBL5252567, “Tetrazole-based inhibitors of the bacterial enzyme N-succinyl-l,l-2,6-diaminopimelic acid desuccinylase as potential antibiotics” (Bioorg Med Chem Lett, 2023)

How the values were obtained:
[1] = molecular target: T1, Succinyl-diaminopimelate desuccinylase (Haemophilus influenzae (strain ATCC 51907 / DSM 11121 / KW20 / Rd)) (UniProt P44514); assay: Inhibition of Haemophilus influenzae DapE at 100 uM relative to control
T1 sequence (whole entry): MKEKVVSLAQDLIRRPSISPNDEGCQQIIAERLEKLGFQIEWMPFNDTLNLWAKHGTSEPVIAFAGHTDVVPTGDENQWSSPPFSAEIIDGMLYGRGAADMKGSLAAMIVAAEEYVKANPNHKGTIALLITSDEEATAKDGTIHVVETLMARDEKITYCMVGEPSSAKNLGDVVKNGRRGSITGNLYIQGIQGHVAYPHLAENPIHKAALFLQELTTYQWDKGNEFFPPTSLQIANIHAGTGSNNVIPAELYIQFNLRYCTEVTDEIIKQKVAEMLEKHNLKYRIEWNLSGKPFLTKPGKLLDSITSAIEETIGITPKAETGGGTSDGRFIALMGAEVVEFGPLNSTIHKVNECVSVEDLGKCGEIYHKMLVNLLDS

[2] = molecular target: T1, Succinyl-diaminopimelate desuccinylase (Haemophilus influenzae (strain ATCC 51907 / DSM 11121 / KW20 / Rd)); assay: Inhibition of Haemophilus influenzae DapE at 75 uM relative to control
[3] = molecular target: T2, Succinyl-diaminopimelate desuccinylase (Haemophilus influenzae (strain ATCC 51907 / DSM 11121 / KW20 / Rd), UniProt P44514); assay: Inhibition of Haemophilus influenzae DapE
T2 sequence (P44514 whole entry): T1 sequence (whole entry)

SMILES	inhibition [1] [%]	inhibition [2] [%]	IC50 [3] [µM]
O=C(CSc1nnnn1-c1ccccc1)Nc1ccon1	49.2	–	–
CC(Sc1nnnn1-c1ccccc1)C(=O)Nc1ccccn1 (centres undefined)	23.2	–	–
CC(Sc1nnnn1-c1ccccc1)C(=O)Nc1ccon1 (centres undefined)	17.2	–	–
O=C(CSc1nnnn1-c1ccccc1)Nc1ccc(Cl)cn1	–	39.5	–
O=C(CSc1nnnn1-c1ccccc1)NCc1ccccc1	61.5	–	103
CC(Sc1nnnn1-c1ccccc1)C(=O)Nc1ccc(Cl)cn1 (centres undefined)	71	–	57.3
O=C(CSc1nnnn1-c1ccccc1)Nc1nccs1	71.5	–	50.2
CC(Sc1nnnn1-c1ccccc1)C(=O)Nc1ccccc1 (centres undefined)	55.4	–	134
O=C(CSc1nnnn1-c1ccccc1)Nc1cnccn1	10.2	–	–
CC(Sc1nnnn1-c1ccccc1)C(=O)NCc1ccccc1 (centres undefined)	36.3	–	–
CC(Sc1nnnn1-c1ccccc1)C(=O)Nc1nccs1 (centres undefined)	35.6	–	–
O=C(CSc1nnnn1-c1ccccc1)Nc1ccccc1	83.8	–	54.3
CC(Sc1nnnn1-c1ccccc1)C(=O)Nc1cnccn1 (centres undefined)	9.7	–	–
O=C(CSc1nnnn1-c1ccccc1)Nc1ccccn1	26.5	–	–
